# Data as given in US20240025856A1, “1,2,3,4-TETRAHYDROQUINOLINE DERIVATIVES AS INHIBITORS OF THE YAP/TAZ-TEAD ACTIVATION FOR TREATING CANCER” (KATHOLIEKE UNIVERSITEIT LEUVEN, priority 2020, published 2024).
# Test system: YAP/TAZ-TEAD transcription
# Test: Reporter gene assay for measuring the inhibition of YAP/TAZ-TEAD transcription (TEAD-responsive element luciferase reporter in Hek293T cells)
# Type: cell-based
# Details: Homo sapiens, HEK-293T, 24 h, Hek293T cells transiently transfected with TEAD-responsive element luciferase reporter; 24 hours incubation
# Summary of the method: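 Readout is SteadyLite luciferase luminescence from a TEAD-responsive element reporter transiently transfected into Hek293T cells, exposed to compounds for 24 h at 37 °C/5% CO2. IC50 derived from percent inhibition, scaled between vehicle basal activity (0%) and positive control inhibitor (100%).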
row,IC50 [nM],Structure (SMILES)
1,< 1000,"O=S1(=O)CCN1CC1Cc2ccccc2N(c2ccc(C(F)(F)F)cc2)C1 (stereo not shown) [compound 123, 2-((1-(4-(trifluoromethyl)phenyl)-1,2,3,4-tetrahydroquinolin-3-yl)methyl)-1,2-thiazetidine-1,1-dioxide]"
2,1000 to 20000,"CNS(=O)(=O)CCNCC1Cc2ccccc2N(c2ccc(C(F)(F)F)cc2)C1 (stereo not shown) [compound 124, N-methyl-2-(((1-(4-(trifluoromethyl)phenyl)-1,2,3,4-tetrahydroquinolin-3-yl)methyl)amino)ethane-1-sulfonamide]"
3,< 1000,"N#CCC(=O)NCC1Cc2ccccc2N(c2ccc(C(F)(F)F)cc2)C1 (stereo not shown) [compound 125, 2-cyano-N-((1-(4-(trifluoromethyl)phenyl)-1,2,3,4-tetrahydroquinolin-3-yl)methyl)acetamide]"
4,1000 to 20000,"N#CCCNCC1Cc2ccccc2N(c2ccc(C(F)(F)F)cc2)C1 (stereo not shown) [compound 126, 3-(((1-(4-(trifluoromethyl)phenyl)-1,2,3,4-tetrahydroquinolin-3-yl)methyl)amino)propanenitrile]"
5,< 1000,"N#CCNCC1Cc2ccccc2N(c2ccc(C(F)(F)F)cc2)C1 (stereo not shown) [compound 127, 2-(((1-(4-(trifluoromethyl)phenyl)-1,2,3,4-tetrahydroquinolin-3-yl)methyl)amino)acetonitrile]"
6,< 1000,"C=CC(=O)NCC1Cc2c(Cc3ccccc3)cccc2N(c2ccc(C(F)(F)F)cc2)C1 (stereo not shown) [compound 129, N-((5-benzyl-1-(4-(trifluoromethyl)phenyl)-1,2,3,4-tetrahydroquinolin-3-yl)methyl)acrylamide]"
7,< 1000,"CCC(=O)NCC1Cc2c(Cc3ccccc3)cccc2N(c2ccc(C(F)(F)F)cc2)C1 (stereo not shown) [compound 130, N-((5-benzyl-1-(4-(trifluoromethyl)phenyl)-1,2,3,4-tetrahydroquinolin-3-yl)methyl)propionamide]"
8,< 1000,"C=CC(=O)NCC1Cc2cc(OC)ccc2N(c2ccc(C(F)(F)F)cc2)C1 (stereo not shown) [compound 131, N-((6-methoxy-1-(4-(trifluoromethyl)phenyl)-1,2,3,4-tetrahydroquinolin-3-yl)methyl)acrylamide]"
9,< 1000,"C=CC(=O)N(C)C1Cc2ccccc2N(c2ccc(C(F)(F)F)cc2)C1 (stereo not shown) [compound 132, N-methyl-N-(1-(4-(trifluoromethyl)phenyl)-1,2,3,4-tetrahydroquinolin-3-yl)acrylamide]"
10,1000 to 20000,"C=CC(=O)N(CCOC)C1Cc2ccccc2N(c2ccc(C(F)(F)F)cc2)C1 (stereo not shown) [compound 133, N-(2-methoxyethyl)-N-(1-(4-(trifluoromethyl)phenyl)-1,2,3,4-tetrahydroquinolin-3-yl)acrylamide]"
11,< 1000,"C=CC(=O)N(CCOC)CC1Cc2ccccc2N(c2ccc(C(F)(F)F)cc2)C1 (stereo not shown) [compound 135, N-(2-methoxyethyl)-N-((1-(4-(trifluoromethyl)phenyl)-1,2,3,4-tetrahydroquinolin-3-yl)methyl)acrylamide]"
12,< 1000,"C=CC(=O)NC1Cc2c(C(N)=O)cccc2N(c2ccc(C(F)(F)F)cc2)C1 (stereo not shown) [compound 136, 3-acrylamido-1-(4-(trifluoromethyl)phenyl)-1,2,3,4-tetrahydroquinoline-5-carboxamide]"
13,> 20000,"C=CC(=O)NC1Cc2c(-c3nnn[nH]3)cccc2N(c2ccc(C(F)(F)F)cc2)C1 (stereo not shown) [compound 137, N-(5-(1H-tetrazol-5-yl)-1-(4-(trifluoromethyl)phenyl)-1,2,3,4-tetrahydroquinolin-3-yl)acrylamide]"
14,< 1000,"C=CC(=O)NC1Cc2c(CN)cccc2N(c2ccc(C(F)(F)F)cc2)C1 (stereo not shown) [compound 138, N-(5-(aminomethyl)-1-(4-(trifluoromethyl)phenyl)-1,2,3,4-tetrahydroquinolin-3-yl)acrylamide]"
15,< 1000,"C=CC(=O)NCC1Cc2ccccc2N([C@H]2CC[C@@H](C(F)(F)F)CC2)C1 (stereo partly drawn) [compound 144, cis-N-((1-(4-(trifluoromethyl)cyclohexyl)-1,2,3,4-tetrahydroquinolin-3-yl)methyl)acrylamide]"
16,< 1000,"C=CC(=O)NCC1Cc2ccccc2N(C2CCC(F)(F)CC2)C1 (stereo not shown) [compound 145, N-((1-(4,4-difluorocyclohexyl)-1,2,3,4-tetrahydroquinolin-3-yl)methyl)acrylamide]"
17,< 1000,"C=CC(=O)NC1Cc2c(ccnc2N)N(c2ccc(C(F)(F)F)cc2)C1 (stereo not shown) [compound 146, N-(5-amino-1-(4-(trifluoromethyl)phenyl)-1,2,3,4-tetrahydro-1,6-naphthyridin-3-yl)acrylamide]"
18,1000 to 20000,"CCC(=O)NCC1Cc2ccccc2N(c2ccc(C#N)cc2)C1 (stereo not shown) [compound 148, N-((1-(4-cyanophenyl)-1,2,3,4-tetrahydroquinolin-3-yl)methyl)propionamide]"

# Second part, the molecule before the results:
row,Structure (SMILES),IC50 [nM]
1,"CC(C)=CC(=O)NCC1Cc2ccccc2N(c2ccc(C(F)(F)F)cc2)C1 (stereo not shown) [compound 099, 3-methyl-N-((1-(4-(trifluoromethyl)phenyl)-1,2,3,4-tetrahydroquinolin-3-yl)methyl)but-2-enamide]",1000 to 20000
2,"C=CC(=O)NCC1Cc2ccccc2N(c2ccc(C(=O)NC)cc2)C1 (stereo not shown) [compound 100, 4-(3-(acrylamidomethyl)-3,4-dihydroquinolin-1(2H)-yl)—N-methylbenzamide]",> 20000
3,"C=CC(=O)NCC1Cc2ccccc2N(c2ccc(F)c(F)c2)C1 (stereo not shown) [compound 101, N-((1-(3,4-difluorophenyl)-1,2,3,4-tetrahydroquinolin-3-yl)methyl)acrylamide]",< 1000
4,"C=CC(=O)NCC1Cc2ccccc2N(c2ccc(F)cc2F)C1 (stereo not shown) [compound 102, N-((1-(2,4-difluorophenyl)-1,2,3,4-tetrahydroquinolin-3-yl)methyl)acrylamide]",< 1000
5,"C=CC(=O)NCC1Cc2ccccc2N(c2ccc3cc[nH]c3c2)C1 (stereo not shown) [compound 104, N-((1-(1H-indol-6-yl)-1,2,3,4-tetrahydroquinolin-3-yl)methyl)acrylamide]",< 1000
6,"C=CC(=O)NCC1Cc2ccccc2N(c2ccc(C(F)F)cc2)C1 (stereo not shown) [compound 105, N-((1-(4-(difluoromethyl)phenyl)-1,2,3,4-tetrahydroquinolin-3-yl)methyl)acrylamide]",< 1000
7,"C=CC(=O)NCC1Cc2ccccc2N(c2ccc(OC(F)(F)F)cc2)C1 (stereo not shown) [compound 106, N-((1-(4-(trifluoromethoxy)phenyl)-1,2,3,4-tetrahydroquinolin-3-yl)methyl)acrylamide]",< 1000
8,"C=CC(=O)NCC1Cc2ccccc2N(c2ccc(OC(F)F)cc2)C1 (stereo not shown) [compound 107, N-((1-(4-(difluoromethoxy)phenyl)-1,2,3,4-tetrahydroquinolin-3-yl)methyl)acrylamide]",< 1000
9,"C=CC(=O)NCC1Cc2ccccc2N(c2cccc(F)c2)C1 (stereo not shown) [compound 108, N-((1-(3-fluorophenyl)-1,2,3,4-tetrahydroquinolin-3-yl)methyl)acrylamide]",< 1000
10,"C=CC(=O)NCC1Cc2ccccc2N(c2cccc(F)c2F)C1 (stereo not shown) [compound 109, N-((1-(2,3-difluorophenyl)-1,2,3,4-tetrahydroquinolin-3-yl)methyl)acrylamide]",< 1000
11,"C=CC(=O)NCC1Cc2ccccc2N(c2cc(F)ccc2F)C1 (stereo not shown) [compound 110, N-((1-(2,5-difluorophenyl)-1,2,3,4-tetrahydroquinolin-3-yl)methyl)acrylamide]",< 1000
12,"C=CC(=O)NCC1Cc2ccccc2N(c2cc(F)cc(F)c2)C1 (stereo not shown) [compound 111, N-((1-(3,5-difluorophenyl)-1,2,3,4-tetrahydroquinolin-3-yl)methyl)acrylamide]",< 1000
13,"C=CC(=O)NCC1Cc2ccccc2N(c2ccc(C(F)(F)F)c(F)c2)C1 (stereo not shown) [compound 112, N-((1-(3-fluoro-4-(trifluoromethyl)phenyl)-1,2,3,4-tetrahydroquinolin-3-yl)methyl)acrylamide]",< 1000
14,"C=CC(=O)NCC1Cc2ccccc2N(c2ccc(SC(F)(F)F)cc2)C1 (stereo not shown) [compound 114, N-((1-(4-((trifluoromethyl)thio)phenyl)-1,2,3,4-tetrahydroquinolin-3-yl)methyl)acrylamide]",< 1000
15,"C=CC(=O)NCC1Cc2ccccc2N(c2cnc(C(F)(F)F)nc2)C1 (stereo not shown) [compound 115, N-((1-(2-(trifluoromethyl)pyrimidin-5-yl)-1,2,3,4-tetrahydroquinolin-3-yl)methyl)acrylamide]",< 1000
16,"C=CC(=O)NCC1Cc2ccccc2N(c2ccc(C)cc2C)C1 (stereo not shown) [compound 116, N-((1-(2,4-dimethylphenyl)-1,2,3,4-tetrahydroquinolin-3-yl)methyl)acrylamide]",< 1000
17,"C=CC(=O)NCC1Cc2ccccc2N(c2ccc(S(F)(F)(F)(F)F)cc2)C1 (stereo not shown) [compound 117, N-((1-(4-(pentafluoro-λ^6-sulfaneyl)phenyl)-1,2,3,4-tetrahydroquinolin-3-yl)methyl)acrylamide]",< 1000
18,"C=CC(=O)NCC1Cc2ccccc2N(C2CCCCC2)C1 (stereo not shown) [compound 118, N-((1-cyclohexyl-1,2,3,4-tetrahydroquinolin-3-yl)methyl)acrylamide]",< 1000
19,"C#CC(=O)NCC1Cc2ccccc2N(c2ccc(C(F)(F)F)cc2)C1 (stereo not shown) [compound 119, N-((1-(4-(trifluoromethyl)phenyl)-1,2,3,4-tetrahydroquinolin-3-yl)methyl)propiolamide]",< 1000
20,"CN(C)C/C=C/C(=O)NCC1Cc2ccccc2N(c2ccc(C(F)(F)F)cc2)C1 (stereo not shown) [compound 120, (E)-4-(dimethylamino)-N-((1-(4-(trifluoromethyl)phenyl)-1,2,3,4-tetrahydroquinolin-3-yl)methyl)but-2-enamide]",< 1000
21,"CS(=O)(=O)NCC1Cc2ccccc2N(c2ccc(C(F)(F)F)cc2)C1 (stereo not shown) [compound 121, N-((1-(4-(trifluoromethyl)phenyl)-1,2,3,4-tetrahydroquinolin-3-yl)methyl)methanesulfonamide]",< 1000
22,"C=CS(=O)(=O)NCC1Cc2ccccc2N(c2ccc(C(F)(F)F)cc2)C1 (stereo not shown) [compound 122, N-((1-(4-(trifluoromethyl)phenyl)-1,2,3,4-tetrahydroquinolin-3-yl)methyl)ethenesulfonamide]",< 1000
